According to US20260184712A1, “Heterocyclic Compounds as ENT Inhibitors and Compounds for Use in the Treatment of Cancers” (iTeos Belgium SA, priority 2022, published 2026):

Molecular target: T1, human ENT1 (Homo sapiens, UniProt Q99808)
T1 construct: JAR cells expressing ENT1 were purchased from ATCC; host or cells: JAR cells
T1 sequence (Q99808 1-456): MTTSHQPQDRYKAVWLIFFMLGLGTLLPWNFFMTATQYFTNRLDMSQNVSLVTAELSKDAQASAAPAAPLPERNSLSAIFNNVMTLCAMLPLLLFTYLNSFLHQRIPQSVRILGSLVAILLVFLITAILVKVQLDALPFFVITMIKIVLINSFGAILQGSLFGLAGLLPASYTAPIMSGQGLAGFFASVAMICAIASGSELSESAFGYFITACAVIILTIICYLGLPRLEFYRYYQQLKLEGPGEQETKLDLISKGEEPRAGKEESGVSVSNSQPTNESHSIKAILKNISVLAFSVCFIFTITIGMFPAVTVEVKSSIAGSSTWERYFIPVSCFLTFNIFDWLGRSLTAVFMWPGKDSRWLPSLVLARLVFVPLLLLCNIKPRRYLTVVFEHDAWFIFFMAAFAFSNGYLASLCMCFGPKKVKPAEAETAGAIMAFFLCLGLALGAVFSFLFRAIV
Test: ENT1 binding assay (competition with Sahenta-DY647 on JAR cells)
Details: Binding Assay IC50, competition with SAHENTA-DY647 binding; IC50 categorized
Procedure, shortened: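 Fluorescent-tracer displacement: compound incubated with JAR cells 30 min, 4 °C, before Sahenta-DY647 (100 nM) for another 30 min, 4 °C, in Hepes-buffered HBSS with 0.1% BSA. Bound tracer read at 670 nm after washes; IC50 from four-parameter fit, reported as mean of pIC50 values.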

| SMILES | IC50 |
| --- | --- |
| C[C@H]1O[C@@H](n2cnc3c(COc4ccc(C#N)cc4)ncnc32)[C@H](O)[C@@H]1O [Compound 280] | > 500 nM |

Same assay, conditions: competition with SAHENTA-DY647 binding; IC50 categorized; read-out: Binding Assay IC50

| SMILES | IC50 |
| --- | --- |
| C[C@H]1O[C@@H](n2cnc3c(OCc4ccc(F)c(F)c4F)ncnc32)[C@H](O)[C@@H]1O [Compound 238] | > 500 nM |
| O=[N+]([O-])c1ccc(COc2ncnc3c2ncn3[C@@H]2O[C@H](COCCN3CCCC3)[C@@H](O)[C@H]2O)cc1 [Compound 240] | > 500 nM |
| C[C@H]1O[C@@H](n2cnc3c(OCCc4ccc(OC(F)(F)F)cc4)ncnc32)[C@H](O)[C@@H]1O [Compound 241] | > 500 nM |
| NC(=O)[C@H]1O[C@@H](n2cnc3c(SCc4ccc([N+](=O)[O-])cc4)ncnc32)[C@H](O)[C@@H]1O [Compound 243] | > 500 nM |
| C[C@H]1O[C@@H](n2cnc3c(OCc4ccc(C#N)cc4)nc(Cl)nc32)[C@H](O)[C@@H]1O [Compound 244] | > 500 nM |
| C[C@H]1O[C@@H](n2cnc3c(OCCc4ccc([N+](=O)[O-])nc4)ncnc32)[C@H](O)[C@@H]1O [Compound 248] | > 500 nM |
| C[C@H]1O[C@@H](n2cnc3c(OCCc4ccc(C#N)cc4)ncnc32)[C@H](O)[C@@H]1O [Compound 249] | > 500 nM |
| C[C@H]1O[C@@H](n2cnc3c(NCc4ccc(-c5ncon5)cc4)ncnc32)[C@H](O)[C@@H]1O [Compound 255] | > 500 nM |
| C[C@H]1O[C@@H](n2cnc3c(OCc4ccc([N+](=O)[O-])cc4)nc(O)nc32)[C@H](O)[C@@H]1O [Compound 256] | > 500 nM |
| C[C@H]1O[C@@H](n2cnc3c(SCc4ccc(C#N)cn4)ncnc32)[C@H](O)[C@@H]1O [Compound 257] | > 500 nM |
| Cc1nc(OCc2ccc([N+](=O)[O-])cc2)c2ncn([C@@H]3O[C@H](C)[C@@H](O)[C@H]3O)c2n1 [Compound 259] | > 500 nM |
| C[C@H]1O[C@@H](n2cnc3c(OCc4c(F)cc(F)cc4F)ncnc32)[C@H](O)[C@@H]1O [Compound 260] | > 500 nM |
| C[C@H]1O[C@@H](n2cnc3c(NCc4ccc(NS(C)(=O)=O)cc4)ncnc32)[C@H](O)[C@@H]1O [Compound 261] | > 500 nM |
| CNc1nc2c(OCc3ccccc3)ncnc2n1[C@@H]1O[C@H](C)[C@@H](O)[C@H]1O [Compound 264] | > 500 nM |
| C[C@H]1O[C@@H](n2cnc3c(OCCc4cnc(C#N)c(F)c4)ncnc32)[C@H](O)[C@@H]1O [Compound 265] | > 500 nM |
| C[C@H]1O[C@@H](n2cnc3c(C(=O)N4CC(c5ccc([N+](=O)[O-])cc5)C4)ncnc32)[C@H](O)[C@@H]1O [Compound 266] | > 500 nM |

| SMILES | IC50 |
| --- | --- |
| C[C@H]1O[C@@H](n2cnc3c(OCCc4ccc(C(F)F)cc4)ncnc32)[C@H](O)[C@@H]1O [Compound 267] | > 500 nM |
| C[C@H]1O[C@@H](n2cnc3c(SCc4ccc(C(F)(F)F)nc4)ncnc32)[C@H](O)[C@@H]1O [Compound 270] | > 500 nM |
| O=C(NCCO)[C@H]1O[C@@H](n2cnc3c(OCc4ccc([N+](=O)[O-])cc4)ncnc32)[C@H](O)[C@@H]1O [Compound 271] | > 500 nM |
| C[C@H]1O[C@@H](n2cnc3c(OCc4cccc(C(F)(F)F)c4)ncnc32)[C@H](O)[C@@H]1O [Compound 274] | > 500 nM |
| C[C@H]1O[C@@H](n2cnc3c(OCCc4cccc([N+](=O)[O-])c4)ncnc32)[C@H](O)[C@@H]1O [Compound 275] | > 500 nM |
| C[C@H]1O[C@@H](n2cnc3c(OCCc4ccc(OC(F)F)cc4)ncnc32)[C@H](O)[C@@H]1O [Compound 276] | > 500 nM |
| C[C@H]1O[C@@H](n2cnc3c(OCCc4ccc(OC(F)F)nc4)ncnc32)[C@H](O)[C@@H]1O [Compound 278] | > 500 nM |
| C[C@H]1O[C@@H](n2cnc3c(OCc4ccc([N+](=O)[O-])cn4)ncnc32)[C@H](O)[C@@H]1O [Compound 281] | > 500 nM |
| C[C@H]1O[C@@H](n2cnc3c(NCc4ccc(C(F)(F)F)c(Cl)c4)ncnc32)[C@H](O)[C@@H]1O [Compound 282] | > 500 nM |
| COc1nc(OCc2ccc([N+](=O)[O-])cc2)c2ncn([C@@H]3O[C@H](C)[C@@H](O)[C@H]3O)c2n1 [Compound 283] | > 500 nM |
| C[C@H]1O[C@@H](n2cnc3c(COc4ccc(Cl)cc4)ncnc32)[C@H](O)[C@@H]1O [Compound 285] | > 500 nM |
| Cc1cc(CSc2ncnc3c2ncn3[C@@H]2O[C@H](C)[C@@H](O)[C@H]2O)n(C)n1 [Compound 289] | > 500 nM |
| CN(CCO)C(=O)[C@H]1O[C@@H](n2cnc3c(OCc4ccc([N+](=O)[O-])cc4)ncnc32)[C@H](O)[C@@H]1O [Compound 292] | > 500 nM |
| C[C@H]1O[C@@H](n2cnc3c(N4CCN(c5ccc([N+](=O)[O-])cc5)CC4)ncnc32)[C@H](O)[C@@H]1O [Compound 299] | > 500 nM |
| C[C@H]1O[C@@H](n2cnc3c(SCc4cscn4)ncnc32)[C@H](O)[C@@H]1O [Compound 300] | > 500 nM |

Next, values leading:

| IC50 | SMILES |
| --- | --- |
| > 500 nM | C[C@H]1O[C@@H](n2cnc3c(SCc4ccccc4S(N)(=O)=O)ncnc32)[C@H](O)[C@@H]1O [Compound 242] |
| > 500 nM | CC(=O)c1ccc(COc2ncnc3c2ncn3[C@@H]2O[C@H](C)[C@@H](O)[C@H]2O)cc1 [Compound 245] |
| > 500 nM | C[C@H]1O[C@@H](n2cnc3c(OCc4cccc(OC(F)F)c4)ncnc32)[C@H](O)[C@@H]1O [Compound 246] |
| > 500 nM | C[C@H]1O[C@@H](n2c(O)nc3c(OCc4ccc([N+](=O)[O-])cc4)ncnc32)[C@H](O)[C@@H]1O [Compound 247] |
| > 500 nM | C[C@H]1O[C@@H](n2cnc3c(OCc4ccc(Cl)c(C(F)(F)F)c4)ncnc32)[C@H](O)[C@@H]1O [Compound 250] |
| > 500 nM | C[C@H]1O[C@@H](n2cnc3c(SCc4cncc(C#N)c4)ncnc32)[C@H](O)[C@@H]1O [Compound 251] |
| > 500 nM | C[C@H]1O[C@@H](n2cnc3c(NCCc4ccc([N+](=O)[O-])cc4)ncnc32)[C@H](O)[C@@H]1O [Compound 252] |
| > 500 nM | C[C@H]1O[C@@H](n2cnc3c(C(=O)N4CCCC4c4ccccc4)ncnc32)[C@H](O)[C@@H]1O (stereo partly shown) [Compound 253] |
| > 500 nM | C[C@H]1O[C@@H](n2cnc3c(NCc4ccc(Cl)c(Cl)c4)ncnc32)[C@H](O)[C@@H]1O [Compound 254] |
| > 500 nM | C[C@H]1OC(n2cnc3c(COc4ccc(C#N)c(F)c4)ncnc32)[C@H](O)[C@@H]1O (stereo partly shown) [Compound 258] |
| > 500 nM | CC(C)(O)[C@H]1O[C@@H](n2cnc3c(SCc4ccc(OC(F)(F)F)cc4)ncnc32)[C@H](O)[C@@H]1O [Compound 262] |
| > 500 nM | CC(Oc1ncnc2c1ncn2[C@@H]1O[C@H](C)[C@@H](O)[C@H]1O)c1ccc(OC(F)F)cc1 (stereo partly shown) [Compound 263] |
| > 500 nM | C[C@H]1O[C@@H](n2cnc3c(OCCc4cc(F)c(Cl)c(F)c4)ncnc32)[C@H](O)[C@@H]1O [Compound 268] |
| > 500 nM | C[C@H]1O[C@@H](n2cnc3c(OCc4c(F)cc(C#N)cc4F)ncnc32)[C@H](O)[C@@H]1O [Compound 269] |
| > 500 nM | Cc1cc(CSc2ncnc3c2ncn3[C@@H]2O[C@H](C)[C@@H](O)[C@H]2O)cc(C)c1F [Compound 272] |
| > 500 nM | C[C@H]1O[C@@H](n2cnc3c(SCc4cccc(S(N)(=O)=O)c4)ncnc32)[C@H](O)[C@@H]1O [Compound 273] |
| > 500 nM | C[C@H]1O[C@@H](n2cnc3c(NCc4ccc(S(C)(=O)=O)cc4)ncnc32)[C@H](O)[C@@H]1O [Compound 277] |
| > 500 nM | CNC(=O)[C@H]1O[C@@H](n2cnc3c(OCc4ccc([N+](=O)[O-])cc4)ncnc32)[C@H](O)[C@@H]1O [Compound 279] |
| > 500 nM | C[C@H]1O[C@@H](n2cnc3c(OCc4cc(F)c(C#N)c(F)c4)nc(Cl)nc32)[C@H](O)[C@@H]1O [Compound 284] |
| > 500 nM | NC[C@H]1O[C@@H](n2cnc3c(SCc4ccc([N+](=O)[O-])cc4)ncnc32)[C@H](O)[C@@H]1O [Compound 287] |
| > 500 nM | C[C@H]1O[C@@H](n2cnc3c(COc4ccc(OC(F)(F)F)cc4)ncnc32)[C@H](O)[C@@H]1O [Compound 288] |
| > 500 nM | C[C@H]1O[C@@H](n2cnc3c(COCc4ccc(Cl)cc4)ncnc32)[C@H](O)[C@@H]1O [Compound 290] |
| > 500 nM | C[C@H]1O[C@@H](n2cnc3c(OCc4ccc(-c5cnco5)cc4)ncnc32)[C@H](O)[C@@H]1O [Compound 291] |
| > 500 nM | C[C@H]1O[C@@H](n2cnc3c(OCCc4ccc(Cl)cc4)ncnc32)[C@H](O)[C@@H]1O [Compound 293] |
| > 500 nM | C[C@H]1O[C@@H](n2cnc3c(OCCc4ccc(CF)cc4)ncnc32)[C@H](O)[C@@H]1O [Compound 294] |
| > 500 nM | C[C@H]1O[C@@H](n2cnc3c(C(=O)NCc4ccc(OC(F)(F)F)cc4)ncnc32)[C@H](O)[C@@H]1O [Compound 295] |
| > 500 nM | C[C@H]1O[C@@H](n2cnc3c(COc4ccc(OCF)cc4)ncnc32)[C@H](O)[C@@H]1O [Compound 296] |
| > 500 nM | CNS(=O)(=O)c1ccc(CSc2ncnc3c2ncn3[C@@H]2O[C@H](C)[C@@H](O)[C@H]2O)cc1 [Compound 297] |
| > 500 nM | C[C@H]1O[C@@H](n2cnc3c(C(=O)NCc4ccc(C(F)(F)F)cc4)ncnc32)[C@H](O)[C@@H]1O [Compound 298] |
